1 compound from ChEMBL document CHEMBL2074399, “Effects of steroids and verapamil on P-glycoprotein ATPase activity: progesterone, desoxycorticosterone, corticosterone and verapamil are mutually non-exclusive modulators” (Biochem J, 1996) can be followed below.

This series has as its target ATP-dependent translocase ABCB1 (Homo sapiens, UniProt P08183). Description: TP_TRANSPORTER: inhibition of Verapamil stimulated ATP hydrolysis (Verapamil: 2 uM, Corticosterone: 800 uM) in membrane vesicles from DC-3F/ADX cells. The conditions noted are these: hamster. The class given is functional, cell membranes, Membrane vesicle.

ATP-dependent translocase ABCB1, sequence (P08183 whole entry): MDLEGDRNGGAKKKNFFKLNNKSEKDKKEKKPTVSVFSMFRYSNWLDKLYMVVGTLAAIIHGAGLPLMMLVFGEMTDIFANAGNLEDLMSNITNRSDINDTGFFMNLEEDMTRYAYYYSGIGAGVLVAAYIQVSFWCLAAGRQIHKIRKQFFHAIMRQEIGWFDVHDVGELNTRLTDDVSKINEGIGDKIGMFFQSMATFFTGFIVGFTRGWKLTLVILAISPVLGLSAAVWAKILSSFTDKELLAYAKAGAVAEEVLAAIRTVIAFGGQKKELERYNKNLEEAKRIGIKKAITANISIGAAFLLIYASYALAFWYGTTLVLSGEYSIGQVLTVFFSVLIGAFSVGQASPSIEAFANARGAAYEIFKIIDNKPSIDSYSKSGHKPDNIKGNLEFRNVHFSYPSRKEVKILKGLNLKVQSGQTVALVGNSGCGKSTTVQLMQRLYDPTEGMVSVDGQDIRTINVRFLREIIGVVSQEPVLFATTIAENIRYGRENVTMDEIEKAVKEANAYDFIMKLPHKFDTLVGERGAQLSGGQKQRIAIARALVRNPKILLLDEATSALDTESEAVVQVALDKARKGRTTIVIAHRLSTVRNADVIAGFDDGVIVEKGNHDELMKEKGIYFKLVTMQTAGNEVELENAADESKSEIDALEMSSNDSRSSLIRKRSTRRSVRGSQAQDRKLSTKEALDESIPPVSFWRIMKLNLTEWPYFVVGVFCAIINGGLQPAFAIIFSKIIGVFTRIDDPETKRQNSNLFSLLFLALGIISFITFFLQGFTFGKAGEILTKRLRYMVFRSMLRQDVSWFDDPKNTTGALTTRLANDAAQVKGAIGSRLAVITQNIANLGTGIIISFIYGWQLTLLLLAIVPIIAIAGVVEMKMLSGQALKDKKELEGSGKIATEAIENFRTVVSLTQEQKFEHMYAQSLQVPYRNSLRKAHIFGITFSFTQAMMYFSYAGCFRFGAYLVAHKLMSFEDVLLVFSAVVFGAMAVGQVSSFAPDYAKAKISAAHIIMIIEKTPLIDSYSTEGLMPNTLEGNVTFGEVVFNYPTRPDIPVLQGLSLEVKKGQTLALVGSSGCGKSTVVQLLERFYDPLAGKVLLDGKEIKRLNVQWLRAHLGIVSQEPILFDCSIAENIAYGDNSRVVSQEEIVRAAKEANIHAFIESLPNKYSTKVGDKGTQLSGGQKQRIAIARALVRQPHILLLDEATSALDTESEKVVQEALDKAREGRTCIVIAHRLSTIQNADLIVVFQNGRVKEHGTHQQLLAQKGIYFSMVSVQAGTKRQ

In the case of `C[C@]12C[C@H](O)[C@H]3[C@@H](CCC4=CC(=O)CC[C@@]43C)[C@@H]1CC[C@@H]2C(=O)CO` [CORTICOSTERONE], the Activity entry is “inhibitor [+]”.
